Values quoted from earlier work, collected in publication PMC8344243, “Design, synthesis, docking, ADMET studies, and anticancer evaluation of new 3-methylquinoxaline derivatives as VEGFR-2 inhibitors and apoptosis inducers” (Journal of Enzyme Inhibition and Medicinal Chemistry, 2021).
pIC50: −log10 of the molar value.

How the values were obtained:
Design in all cases: method as in PMID 33721808, PMID 34023640
[1] = test system: MCF-7; settings: lead compounds of previous work ref 63, 64, read-out: Cytotoxicity on cancer cells IC50, MCF-7; cited from earlier work
[2] = test system: HepG2; settings: lead compounds of previous work ref 63, 64, read-out: Cytotoxicity on cancer cells IC50, HepG2; cited from earlier work
[3] = biological target: T1, human VEGFR-2 (Homo sapiens, UniProt P35968); settings: lead compounds of previous work ref 63, 64; cited from earlier work
T1 construct: endogenous in cells; host or cells: HepG2
T1 sequence (P35968 20-1356): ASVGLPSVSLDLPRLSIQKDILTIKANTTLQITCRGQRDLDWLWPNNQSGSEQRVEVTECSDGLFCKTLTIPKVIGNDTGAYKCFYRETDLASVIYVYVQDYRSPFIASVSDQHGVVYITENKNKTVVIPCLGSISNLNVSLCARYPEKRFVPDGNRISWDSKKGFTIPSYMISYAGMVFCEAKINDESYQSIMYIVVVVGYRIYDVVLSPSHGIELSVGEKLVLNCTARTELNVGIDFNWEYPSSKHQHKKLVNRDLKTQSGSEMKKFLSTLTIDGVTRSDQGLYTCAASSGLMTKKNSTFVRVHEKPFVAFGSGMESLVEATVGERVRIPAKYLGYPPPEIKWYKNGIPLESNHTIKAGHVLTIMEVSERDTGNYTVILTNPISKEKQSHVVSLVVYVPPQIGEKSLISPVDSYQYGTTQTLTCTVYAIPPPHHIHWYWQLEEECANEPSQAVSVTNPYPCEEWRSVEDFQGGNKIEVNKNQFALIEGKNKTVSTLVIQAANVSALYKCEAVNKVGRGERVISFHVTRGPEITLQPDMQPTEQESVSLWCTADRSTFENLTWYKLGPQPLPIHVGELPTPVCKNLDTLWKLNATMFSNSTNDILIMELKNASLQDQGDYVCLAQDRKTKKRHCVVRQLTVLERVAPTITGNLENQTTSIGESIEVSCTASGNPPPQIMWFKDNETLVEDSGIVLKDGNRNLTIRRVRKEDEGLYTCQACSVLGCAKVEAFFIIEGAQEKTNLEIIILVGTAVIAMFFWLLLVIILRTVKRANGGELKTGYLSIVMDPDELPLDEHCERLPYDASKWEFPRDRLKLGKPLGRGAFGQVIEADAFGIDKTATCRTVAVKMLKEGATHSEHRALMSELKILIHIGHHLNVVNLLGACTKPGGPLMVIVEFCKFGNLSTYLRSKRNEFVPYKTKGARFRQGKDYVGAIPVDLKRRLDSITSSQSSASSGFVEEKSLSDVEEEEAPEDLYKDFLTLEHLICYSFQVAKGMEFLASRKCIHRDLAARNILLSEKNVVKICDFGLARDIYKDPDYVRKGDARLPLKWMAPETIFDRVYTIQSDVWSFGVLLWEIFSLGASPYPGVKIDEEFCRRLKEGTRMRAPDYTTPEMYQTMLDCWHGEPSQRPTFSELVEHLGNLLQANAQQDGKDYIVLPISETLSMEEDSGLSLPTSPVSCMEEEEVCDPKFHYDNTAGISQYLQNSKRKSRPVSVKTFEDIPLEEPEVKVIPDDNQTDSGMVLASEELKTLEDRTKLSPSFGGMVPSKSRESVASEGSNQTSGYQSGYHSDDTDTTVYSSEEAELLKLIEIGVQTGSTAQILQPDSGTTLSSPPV

| Structure (SMILES) | pIC50 [1] | pIC50 [2] | pIC50 [3] |
| --- | --- | --- | --- |
| O=C(Cn1c(=O)c2nncn2c2ccccc21)Nc1ccc(C(=O)Nc2ccc(Cl)cc2)cc1 [Compound 7] | 5.14 | 5.39 |  |
| COc1ccc(NC(=O)c2ccc(NC(=O)CSc3nnc4c5nncn5c5ccccc5n34)cc2)cc1 [Compound 8] | 5.36 | 5.48 | 8.49 |
